Laboratory results taken from patent US20090123389A1, “Methods for modulating Th17 cell development in the treatment and prevention of cellulite” (priority 2007, published 2009).

Legend:
[1] = tested on: radiation induced fibrosis; settings: IP, 1-5 μg/mouse; cited from earlier work
[2] = tested on: T-cells and fibroblasts; assay: Non-specific effects at high concentrations in vitro; assay type: cell-based; settings: about 80 nM HF, primary T-cells
[3] = human, in vivo; cited from earlier work
[4] = tested on: human memory T cells (CD4+ CD45RO+); assay: IL-17 and IFNγ expression by human memory T cells co-cultured with monocytes; assay type: cell-based; settings: 100 nM HF, 6 days
Description: FIG. 10F is an illustration depicting purified primary human memory T cells (CD4^+ CD45RO^+) activated by anti-CD3/anti-CD28 coated beads in co-culture with CD14^+ monocytes and treated with DMSO, 100 nM HF or 100 nM MAZ1310. T cells were expanded for 6 days and intracellular cytokine expression was determined following restimulation with PMA plus ionomycin in the presence of brefeldin A.
Human T cell isolation and activation: Resting CD4^+ T cells were isolated from PBMC of healthy human donors using Dynal CD4 Positive Isolation Kit (Invitrogen, Carlsbad, Calif.) as previously described (M. Sundrud et al., Blood 106, 3440, 2005). CD4^+ cells were further purified to obtain memory T cells by staining with PE-conjugated anti-human CD45RO-PE antibodies (BD Biosciences), and sorting on a FACSAria cytometer (BD Biosciences). Following purification, cells were greater than 99% CD4^+ CD45RO^+. […] T cells were expanded in the presence HF or MAZ1310 as indicated for 6 days and intracellular cytokine expression was determined by intracellular staining.
Detection of cytokine production: Cytokines secreted into media supernatant were measured using the mouse Th1/Th2 cytometric bead array (CBA, BD Pharmingen) in accordance with manufacturers instructions. […]

[5] = tested on: splenocytes; assay: In vivo activation of the AAR pathway in splenocytes of treated mice; design: species or system C57B/6 mice; settings: 2.5 μg HF i.p., 6 hours post injection
Description: FIG. 20A is a graph depicting splenocytes from control- and HF-treated mice. C57B/6 mice were injected i.p. with vehicle (DMSO) or 2.5 μg HF. Spleens were harvested 6 hours post injection, red blood cells were lysed and total splenocytes were counted. Data are presented as mean cell counts±SD from 2 mice per group.
FIG. 20C is a graph depicting eIF2α expression in control- and HF-treated mice. Splenocytes from mice injected with DMSO or HF as above were harvested 6 hours post injection. Red blood cells were lysed and immunoblotting was performed on whole cell extracts for phosphorylated or total eIF2α as indicated.
FIG. 20D is a graph depicting the results of quantitative real-time PCR (qPCR) experiments performed for AAR-associated gene expression (Asns, Gpt2, eIF4Ebp1) using cDNA generated from splenocytes of mice injected with DMSO or HF as above. Expression of AAR-associated genes were normalized to Hprt levels and data are presented as mean relative expression from duplicate samples±SD.

[6] = tested on: T cell-mediated inflammation; settings: oxazolone-induced; cited from earlier work
[7] = tested on: Jurkat T cells; assay: Apoptosis of Jurkat T cells (Annexin V / PI, flow cytometry); assay type: cell-based; settings: 100 nM HF, cultured for 30 hours
Description: The non-specific cytoxicity of HF in both normal and transformed T-cells at high doses was evaluated. Anti-CD3/anti-CD28 activated primary T cells were harvested 6 days after activation and cultured in the presence of IL-2 with or without HF (100 nM). As a positive control, some T cells were cultured without IL-2 to induce apoptosis (FIG. 3A). Jurkat T cells, a transformed T cell leukemia line, were cultured in complete medium with or without HF (100 nM) as indicated (FIG. 3B). Both primary and Jurkat T cells were cultured for 30 hours and programmed cell death, i.e. apoptosis, was determined by Annexin V staining and propidium iodide (PI) uptake and cells were analyzed by flow cytometry. The percent of apoptotic T cells at each time point was plotted and was defined as Annexin V^+ PI^−. […] In further experiments, titrating amounts of HF were added to primary T cells and apoptosis was determine as above at the indicated time points. At 100 nM HF, but not 30 nM or lower, generalized T-cell apoptosis was observed (FIG. 3C).

O=C(CC1NCCCC1O)Cn1cnc2cc(Br)c(Cl)cc2c1=O (racemic) [HF, 7-bromo-6-chloro-3-[3-(3-hydroxy-2-piperidinyl)-2-oxopropyl]-4(3H)-quinazolinone]
radiation induced fibrosis [1]: prevented radiation induced fibrosis | toxic effect in mice [1]: without evident toxic effect | T-cell proliferation at high concentrations [2]: generalized inhibition | HF in serum during topical treatment [3]: undetectable in serum | IFNγ expression by human T cells [4]: essentially unaffected | percentage of human T cells expressing IL-17 and amount of IL-17 produced [4]: greatly reduced | eIF2α phosphorylation and AAR-associated gene expression in splenocytes of treated mice [5]: rapidly activates | T cell-mediated inflammation (delayed-type hypersensitivity) [6]: inhibits this T cell-mediated inflammation | apoptosis of Jurkat T cells [7]: significant apoptosis
